According to patent publication US20200268728A1, “DRUG TARGETING CANCER STEM CELL” (Sumitomo Dainippon Pharma Co., Ltd., priority 2016, published 2020):
Structures can show the parent of a compound that is named as a salt. Where two headings read alike, the source gives them in different places.

Columns and labels:
Type in all cases: cell-based, human
[1] = tested on: HCT-116 cells; test: Test for inhibiting sphere-forming ability of cancer cells (Test Example 1); conditions: non-adherent serum-free sphere culture, 4 days, CellTiter-Glo, read-out: IC50 (μmol/L), Sphere IC50 value, concentration for 50% inhibition of cell proliferation
Method: The reliable methods established for measuring the self-renewal ability of cells which is one of the CSC's properties include a method for measuring the sphere-forming ability of cancer cells in non-adherent condition in the absence of serum (Cancer Res 65, 5506-5511 (2005)). HCT-116 cells were available from the American Type Culture Collection (ATCC). HCT-116 cells were cultured at 37° C. and 5% CO2 using the McCoy's 5a medium containing 10% fetal bovine serum (FBS), 100 U/ml penicillin, and 100 μg/ml streptomycin. HCT-116 cells were seeded in a 384 Well Black Clear Bottom Ultra-Low Attachment Microplate (Corning Cat. No. 3827) in an amount of 350-800 cells/well using the DMEM/F12 medium containing 2% B27 supplement (GIBCO), 20 ng/mL epidermal growth factor (EGF) (peprotech), 10 ng/mL basic fibroblast growth factor (bFGF) (peprotech), 5 μg/mL insulin (Sigma), and 1% penicillin/streptomycin. The test compounds were added into each well to adjust the final concentration of DMSO to 0.1%, and the cells were cultured for 4 days. The number of viable cells in each well was then measured with CellTiter-Glo® Luminescent Cell Viability Assay (Promega) to calculate the concentration of each test compound for 50% inhibition of cell proliferation (Sphere IC50 value; μmol/L).
The experiment of Test Example 1 was performed for the compounds of each Example.

[2] = tested on: H460 cells; test: Combination with Example 24, inhibitory effect on sphere-forming ability (Test Example 6); conditions: H460 sphere culture, test compound combined with Example 24 (2-1000 nmol/L), 4 days
[3] = tested on: HCT116 cells; test: as above; conditions: HCT116 sphere culture, test compound combined with Example 24 (2-1000 nmol/L), 4 days

Nc1cc(C(=O)Nc2cn(Cc3cc(F)c(F)c(F)c3)cn2)cnc1CO [Example 59, 5-amino-6-(hydroxymethyl)-N-[1-(3,4,5-trifluorobenzyl)-1H-imidazol-4-yl]nicotinamide]
IC50 ([1]; Homo sapiens, 96 h): 0.01 µmol/L

C=CCNC1=C2C[C@@H](C)C[C@H](OC)[C@H](O)[C@@H](C)/C=C(\C)[C@H](OC(N)=O)[C@@H](OC)/C=C\C=C(/C)C(=O)NC(=CC1=O)C2=O [Tanespimycin]
sCI, minimum (Ld)/(Lc) [2]: 0.386

Cc1c[nH]c(-c2cnc(NCCNc3ccc(C#N)cn3)nc2-c2ccc(Cl)cc2Cl)n1 [CHIR-99021]
sCI, minimum (Ld)/(Lc) [2]: 0.378

Cc1cc2c(C(C)C)c(O)c(O)c(C=O)c2c(O)c1-c1c(C)cc2c(C(C)C)c(O)c(O)c(C=O)c2c1O [Gossypol]
sCI, minimum (Ld)/(Lc) [2]: 0.026

COc1ccc(COc2cc3oc(=O)c4cc(C(C)O)ccc4c3cc2OC)cc1 (centres unmarked) [Palomid 529]
sCI, minimum (Ld)/(Lc) [2]: 0.428

CN1CCC(CNc2ccc3ncc(-c4cccc(OC(F)(F)F)c4)n3n2)CC1 [SGI-1776]
sCI, minimum (Ld)/(Lc) [3]: 0.026

CCN(CC)CCNC(=O)c1c(C)[nH]c(/C=C2\C(=O)Nc3ccc(-c4csc(-c5ccccc5)n4)cc32)c1C [Amcasertib]
sCI, minimum (Ld)/(Lc) [3]: 0.017

COc1ccc(C(=O)Nc2cn(Cc3ccc(F)cc3F)cn2)cc1OC [Example 12, N-[1-(2,4-difluorobenzyl)-1H-imidazol-4-yl]-3,4-dimethoxybenzamide]
IC50 [1]: 0.09 µmol/L

CC(C)(C)Cn1c(N)nc2ccc(-c3[nH]c(C(C)(C)C)nc3-c3ccc(F)cc3)nc21 [LY2228820]
sCI, minimum (Ld)/(Lc) [2]: 0.020

CC(C)n1c(/C=C/C(O)CC(O)CC(=O)O)c(-c2ccc(F)cc2)c2ccccc21 (centres unmarked) [Fluvastatin]
sCI, minimum (Ld)/(Lc) [3]: 0.163

Cc1ccc(NC(=O)c2ccc(CN3CCN(C)CC3)cc2)cc1Nc1nc(-c2cccnc2)cs1 [Masitinib]
sCI, minimum (Ld)/(Lc) [2]: 0.010

Cc1c(NC(=O)OC[C@@H]2COCCN2)cn2ncnc(Nc3ccc4c(cnn4Cc4cccc(F)c4)c3)c12 [BMS-599626]
sCI, minimum (Ld)/(Lc) [2]: 0.081

O=C(Nc1ccccc1-c1cn2c(CN3CCNCC3)csc2n1)c1cnc2ccccc2n1 [SRT1720]
sCI, minimum (Ld)/(Lc) [3]: 0.007

CC(=O)c1cc2c(o1)C(=O)c1ccccc1C2=O [Napabucasin]
sCI, minimum (Ld)/(Lc) [3]: 0.159

O=C(Nc1cn(Cc2cccc(C(F)(F)F)c2)cn1)c1csc(CO)n1 [Example 18]
IC50 ([1]; Homo sapiens, 96 h): 0.024 µmol/L

CCCCCCCCc1ccc(CCC(N)(CO)CO)cc1 [Fingolimod]
sCI, minimum (Ld)/(Lc) [2]: 0.007
sCI, minimum (Ld)/(Lc) [3]: 0.013

Cc1cccc(Nc2nc(-c3ccncc3)cs2)c1 [STF-62247]
sCI, minimum (Ld)/(Lc) [2]: 0.221

CC[C@@H]1C(=O)N(C)c2cnc(Nc3ccc(C(=O)NC4CCN(C)CC4)cc3OC)nc2N1C1CCCC1 [BI 2536]
sCI, minimum (Ld)/(Lc) [3]: 0.623

COc1ccc(-c2ccc3c(N4CCOC[C@@H]4C)nc(N4CCOC[C@@H]4C)nc3n2)cc1CO [AZD8055]
sCI, minimum (Ld)/(Lc) [2]: 0.651

CCC(C)(C)C(=O)O[C@H]1C[C@@H](C)C=C2C=C[C@H](C)[C@H](CC[C@@H]3C[C@@H](O)CC(=O)O3)[C@H]21 [Simvastatin]
sCI, minimum (Ld)/(Lc) [3]: 0.257

Raloxifen
sCI, minimum (Ld)/(Lc) [3]: 0.010

CC[C@H](C)C(=O)O[C@H]1C[C@@H](C)C=C2C=C[C@H](C)[C@H](CC[C@@H]3C[C@@H](O)CC(=O)O3)[C@H]21 [Lovastatin]
sCI, minimum (Ld)/(Lc) [3]: 0.150

Nc1cc(C(=O)Nc2cn(Cc3cccc(C(F)(F)F)c3)cn2)cnc1CO [Example 58, 5-Amino-6-(hydroxymethyl)-N-{1-[3-(trifluoromethyl)benzyl]-1H-imidazol-4-yl}nicotinamide]
IC50 ([1]; Homo sapiens, 96 h): 0.029 µmol/L

Cc1nc(Nc2ncc(C(=O)Nc3c(C)cccc3Cl)s2)cc(N2CCN(CCO)CC2)n1 [Dasatinib]
sCI, minimum (Ld)/(Lc) [2]: 0.514
sCI, minimum (Ld)/(Lc) [3]: 0.171

Cn1cc(-c2ccc3nnc(C(F)(F)c4ccc5ncccc5c4)n3n2)cn1 [JNJ-38877605]
sCI, minimum (Ld)/(Lc) [2]: 0.711

O=C(Nc1cn(Cc2cccc(C(F)(F)F)c2)cn1)c1cnc(CO)c(C(F)(F)F)c1 [Example 25]
IC50 ([1]; Homo sapiens, 96 h): 0.07 µmol/L

CC/C(=C(\c1ccccc1)c1ccc(OCCN(C)C)cc1)c1ccccc1 [Tamoxifen]
sCI, minimum (Ld)/(Lc) [3]: 0.046

O=C(Nc1ccc2nc(CO)ccc2c1)c1cn(Cc2cc(F)c(F)c(F)c2)cn1 [Example 29]
IC50 ([1]; Homo sapiens, 96 h): 0.079 µmol/L

O=C(Nc1cn(Cc2cccc(C(F)(F)F)c2)cn1)c1cnc(CO)cn1 [Example 26]
IC50 ([1]; Homo sapiens, 96 h): 0.053 µmol/L

Cc1ccc(Nc2nccc(N(C)c3ccc4c(C)n(C)nc4c3)n2)cc1S(N)(=O)=O [Pazopanib]
sCI, minimum (Ld)/(Lc) [2]: 0.507

Cc1cc(C(=O)Nc2cn(Cc3cc(F)c(F)c(F)c3)cn2)cnc1CO [Example 55, 6-(Hydroxymethyl)-5-methyl-N-[1-(3,4,5-trifluorobenzyl)-1H-imidazol-4-yl]nicotinamide]
IC50 ([1]; Homo sapiens, 96 h): < 0.01 µmol/L

COC1=CC(c2cc3ccccc3[nH]2)=N/C1=C\c1[nH]c(C)cc1C [Obatoclax]
sCI, minimum (Ld)/(Lc) [2]: 0.061
sCI, minimum (Ld)/(Lc) [3]: 0.103

O=C(Nc1cn(Cc2cc(F)c(F)c(F)c2)cn1)c1ccc(CO)nc1 [Example 20, 6-(Hydroxymethyl)-N-[1-(3,4,5-trifluorobenzyl)-1H-imidazol-4-yl]nicotinamide]
IC50 ([1]; Homo sapiens, 96 h): 0.007 µmol/L

O=C(CCCCCCC(=O)Nc1ccccc1)NO [Vorinostat]
sCI, minimum (Ld)/(Lc) [2]: 0.573

O=C(Nc1ccc2c(c1)CCCN2)c1cn(Cc2cc(F)c(F)c(F)c2)cn1 [Example 33, N-(1,2,3,4-Tetrahydroquinolin-6-yl)-1-(3,4,5-trifluorobenzyl)-1H-imidazole-4-carboxamide dihydrochloride]
IC50 ([1]; Homo sapiens, 96 h): 0.66 µmol/L

CN(C)CCOc1ccc(/C(=C(/CCCl)c2ccccc2)c2ccccc2)cc1 [Toremifene]
sCI, minimum (Ld)/(Lc) [3]: 0.020

O=C(Nc1cn(Cc2cccc(C(F)(F)F)c2)cn1)c1ccc(CO)nc1 [Example 22, 6-(hydroxymethyl)-N-{1-[3-(trifluoromethyl)benzyl]-1H-imidazol-4-yl}nicotinamide]
IC50 ([1]; Homo sapiens, 96 h): < 0.01 µmol/L

Cn1cncc1[C@@](N)(c1ccc(Cl)cc1)c1ccc2c(c1)c(-c1cccc(Cl)c1)cc(=O)n2C [Tipifarnib]
sCI, minimum (Ld)/(Lc) [2]: 0.564

CC(C)c1c(C(=O)Nc2ccccc2)c(-c2ccccc2)c(-c2ccc(F)cc2)n1CC[C@@H](O)C[C@@H](O)CC(=O)O [Atorvastatin]
sCI, minimum (Ld)/(Lc) [3]: 0.3

O=C(Nc1cn(Cc2cccc(Cl)c2)cn1)c1ccc(CO)nc1 [Example 21]
IC50 ([1]; Homo sapiens, 96 h): 0.056 µmol/L

CN1CCN(c2nc(C3=C(c4c[nH]c5ccccc45)C(=O)NC3=O)c3ccccc3n2)CC1 [Sotrastaurin]
sCI, minimum (Ld)/(Lc) [2]: 0.030

O=C(Nc1cn(Cc2cccc(C(F)(F)F)c2)cn1)c1cc(CO)on1 [Example 27]
IC50 ([1]; Homo sapiens, 96 h): 0.653 µmol/L

COc1ccc2cc(-c3nc(-c4ccc([S+](C)[O-])cc4)[nH]c3-c3ccncc3)ccc2c1 (centres unmarked) [Tie2 kinase inhibitor]
sCI, minimum (Ld)/(Lc) [2]: 0.123

O=C(Nc1cn(Cc2cccc(C(F)(F)F)c2)cn1)c1cnc(CO)c(C(F)F)c1 [Example 23, 5-(difluoromethyl)-6-(hydroxymethyl)-N-{1-[3-(trifluoromethyl)benzyl]-1H-imidazol-4-yl}nicotinamide]
IC50 ([1]; Homo sapiens, 96 h): < 0.01 µmol/L

CCc1cc(Nc2nccc(-c3c(-c4ccc(OC)c(C(=O)Nc5c(F)cccc5F)c4)nc4ccccn34)n2)c(OC)cc1N1CCC(N2CCN(S(C)(=O)=O)CC2)CC1 [GSK1904529A]
sCI, minimum (Ld)/(Lc) [2]: 0.166

Cc1ccc(F)c(NC(=O)Nc2ccc(-c3cccc4[nH]nc(N)c34)cc2)c1 [Linifanib]
sCI, minimum (Ld)/(Lc) [2]: 0.142

C=C1/C(=C\C=C2/CCC[C@]3(C)[C@@H]([C@H](C)/C=C/[C@H](C)C(C)C)CC[C@@H]23)C[C@@H](O)C[C@@H]1O [Doxercalciferol]
sCI, minimum (Ld)/(Lc) [2]: 0.304

O=C(Nc1ccc(CO)nc1)c1cn(Cc2cc(F)c(F)c(F)c2)cn1 [Example 28, N-[6-(Hydroxymethyl)pyridin-3-yl]-1-(3,4,5-trifluorobenzyl)-1H-imidazole-4-carboxamide]
IC50 ([1]; Homo sapiens, 96 h): < 0.01 µmol/L

O=C(Nc1cn(Cc2cccc(C(F)(F)F)c2)cn1)c1ccc(CO)cn1 [Example 15, 5-(Hydroxymethyl)-N-{1-[3-(trifluoromethyl)benzyl]-1H-imidazol-4-yl}picolinamide]
IC50 ([1]; Homo sapiens, 96 h): 0.03 µmol/L

O=C(Nc1cn(Cc2cc(F)c(F)c(F)c2)cn1)c1csc(CO)n1 [Example 19]
IC50 ([1]; Homo sapiens, 96 h): 0.077 µmol/L

CS(=O)(=O)CCNCc1ccc(-c2ccc3ncnc(Nc4ccc(OCc5cccc(F)c5)c(Cl)c4)c3c2)o1 [Lapatinib]
sCI, minimum (Ld)/(Lc) [2]: 0.076
sCI, minimum (Ld)/(Lc) [3]: 0.024

CC[C@H](C)C(=O)O[C@H]1C[C@H](O)C=C2C=C[C@H](C)[C@H](CC[C@@H](O)C[C@@H](O)CC(=O)O)[C@H]21 [Pravastatin]
sCI, minimum (Ld)/(Lc) [3]: 0.810
